Here are results for five compounds from patent US7635716B2, “Substituted cyclopentanes or cyclopentanones as therapeutic agents” (Allergan, Inc., priority 2005, dated 2009).

Like-named read-outs stand apart in the source and are kept apart here.

The target in one data set is hEP2 (Homo sapiens, UniProt P43116). Nature of the data set: hEP2 cAMP functional assay. To be noted: Table 1, second part. It is filed as cell-based.
The target of the next data set is T1, hDP/Gqs5 (Homo sapiens, UniProt Q13258).
T1 construct: expressed in transfected cells; host or cells: HEK-293(EBNA) cells
T1 sequence (Q13258 1-359): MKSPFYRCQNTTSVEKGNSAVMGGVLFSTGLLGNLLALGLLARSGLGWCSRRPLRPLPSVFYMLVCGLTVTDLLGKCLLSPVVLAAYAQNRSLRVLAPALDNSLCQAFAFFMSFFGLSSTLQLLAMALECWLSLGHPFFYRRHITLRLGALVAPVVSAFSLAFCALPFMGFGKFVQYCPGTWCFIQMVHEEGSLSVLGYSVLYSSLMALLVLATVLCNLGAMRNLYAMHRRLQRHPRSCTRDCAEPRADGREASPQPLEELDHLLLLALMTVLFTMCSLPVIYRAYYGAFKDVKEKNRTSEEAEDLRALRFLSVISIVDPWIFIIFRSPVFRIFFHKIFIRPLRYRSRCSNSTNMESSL
Nature of the data set: FLIPR calcium signal, HEK-293(EBNA) cells. The class given is cell-based.

Data set [1] has as its system normotensive dogs. Nature of the data set: Ocular surface hyperemia (OSH) in normotensive dogs. The class given is in vivo, dog. Also noted: maximum OSH score: scale not given here. To be noted: dosing once daily for 5 days. As for the experimental part:
(§1) (Z)-7-[(1R,2S,3R,5R)-5-Chloro-2-(3,5-dichloro-phenoxymethyl)-3-hydroxy-cyclopentyl]-hept-5-enoic acid (15b) was tested at multiple concentrations in normotensive dogs, dosing once daily for 5 days. At 0.05%, the maximum IOP decrease from baseline was 4.3 mmHg (30%) at 6 h; the maximum OSH score was 0.6 at 6 h. […] This compound was also tested in laser-induced hypertensive monkeys, using one single day dose. At 0.1%, the maximum IOP decrease from baseline was 6 mmHg (19%) at 6 h.
(§2) (Z)-7-[(1R,2S,3R,5R)-5-Chloro-2-(3,5-dichloro-phenoxymethyl)-3-hydroxy-cyclopentyl]-hept-5-enoic acid isopropyl ester (42b) was tested in normotensive dogs at 0.05%, dosing once daily for 5 days. The maximum intraocular pressure (IOP) decrease from baseline was 3 mmHg (19%) at 6 h; the maximum ocular surface hyperemia (OSH) score was 0.6 at 74 h. This compound was also tested in laser-induced hypertensive monkeys, using one single day dose. At 0.01%, the maximum IOP decrease from baseline was 6 mmHg (16%) at 6 h.

The subject of data set [2] is laser-induced hypertensive monkeys. In words: Intraocular pressure (IOP) in laser-induced hypertensive monkeys. It is filed as in vivo, monkey. The note with it: Primates, topical, 0.1%, one single day dose, read-out: maximum IOP decrease from baseline (percent). The method, then: as §1, §2
Data set [3] concerns normotensive dogs. Nature of the data set: Intraocular pressure (IOP) in normotensive dogs. It is filed as in vivo, dog. The note with it: Canis lupus familiaris, topical, 120 h, dosing once daily for 5 days, read-out: maximum IOP decrease from baseline (percent). The method, then: as §1, §2
Setting [4] is: Table 1, first part, triplicate, read-out: functional data (EC50) hDP.
[5] abbreviates: Table 1, second part, quantity not given, values match functional data (EC50) of first part, read-out: Other Receptors hDP.

Sequence of hEP2 (P43116 whole entry): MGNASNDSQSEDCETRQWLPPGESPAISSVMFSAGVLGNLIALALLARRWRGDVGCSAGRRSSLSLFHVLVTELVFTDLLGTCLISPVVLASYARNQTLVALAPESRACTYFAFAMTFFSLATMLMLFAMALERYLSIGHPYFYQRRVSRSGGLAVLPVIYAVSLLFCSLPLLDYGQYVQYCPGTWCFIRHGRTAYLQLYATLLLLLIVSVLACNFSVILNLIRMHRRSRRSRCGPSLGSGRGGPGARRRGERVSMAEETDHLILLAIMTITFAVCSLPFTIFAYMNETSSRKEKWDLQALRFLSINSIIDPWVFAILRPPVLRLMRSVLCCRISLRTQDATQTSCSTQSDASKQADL

Regarding `O=C(O)CCCCCC[C@@H]1[C@@H](COc2cc(Cl)cc(Cl)c2)[C@H](O)C[C@H]1Cl` [Example 14, 7-[(1R,2S,3R,5R)-5-Chloro-2-(3,5-dichloro-phenoxymethyl)-3-hydroxy-cyclopentyl]-heptanoic acid], the EC50 is 0.014 µM at hEP2, over 10 µM at hDP/Gqs5 (setting [4]) and over 10 µM at hDP/Gqs5 (setting [5]).

Turning to `O=C(O)CCCCCC[C@H]1C(=O)CC[C@@H]1COc1ccccc1` [Example 6, 7-((1R,5S)-2-Oxo-5-phenoxymethyl-cyclopentyl)-heptanoic acid], the EC50 on hEP2 was 0.234 µM; on hDP/Gqs5 (setting [4]), over 10 µM; on hDP/Gqs5 (setting [5]), over 10 µM.

With `O=C(O)CCC/C=C\C[C@@H]1[C@@H](COc2cc(Cl)cc(Cl)c2)[C@H](O)C[C@H]1Cl` [Example 12, (Z)-7-[(1R,2S,3R,5R)-5-Chloro-2-(3,5-dichloro-phenoxymethyl)-3-hydroxy-cyclopentyl]-hept-5-enoic acid], the figures for the EC50 on hEP2, at hDP/Gqs5 (setting [4]) and at hDP/Gqs5 (setting [5]) were 0.0009 µM, over 10 µM and over 10 µM, respectively. The “maximum OSH score” value in the data set on normotensive dogs [1] (0.05%) came out at 0.6; in the data set with normotensive dogs [1] (0.1%) it was 1.3. Also, the “time of maximum OSH score” value in the data set with normotensive dogs [1] (0.05%) and with normotensive dogs [1] (0.1%) was 6 h throughout. The inhibition in vivo at 0.1 % in data set [2] was 19%; in the data set with normotensive dogs [3] (0.1%), 34%. Also, the inhibition in vivo at 0.05 % in the data set with normotensive dogs [3] (0.05%) is 30%.

`O=C(O)CCC/C=C\C[C@@H]1[C@@H](COc2ccccc2)[C@H](O)C[C@H]1Cl` [Example 8, (Z)-7-((1R,2S,3R,5R)-5-Chloro-3-hydroxy-2-phenoxymethyl-cyclopentyl)-hept-5-enoic acid]: the EC50 at hDP/Gqs5 (setting [4]) and on hDP/Gqs5 (setting [5]) was over 10 µM throughout.

Regarding `O=C(O)CCCCCC[C@@H]1[C@@H](COc2ccccc2)[C@H](O)C[C@H]1Cl` [Example 10, 7-((1R,2S,3R,5R)-5-Chloro-3-hydroxy-2-phenoxymethyl-cyclopentyl)-heptanoic acid], the EC50 is 0.047 µM at hEP2, over 10 µM on hDP/Gqs5 (setting [4]) and over 10 µM on hDP/Gqs5 (setting [5]).
